The values below are quoted from earlier work in patent US9943488B2, “Gamma hydroxybutyric acid granules” (DEBREGEAS ET ASSOCIES PHARMA, priority 2011, dated 2018).

The structures appear in SMILES notation.

The conditions of the series: after oral administration.

In the case of `O=C(O)CCCO` [GHB, Gamma-hydroxybutyric acid], the Absolute bio-availability is reported as 25%.
